{"source": "patent US20220331341A1", "about": "“TREATMENT COMPRISING THE USE OF FXR AGONISTS” (Novartis AG, priority 2019, published 2022)", "key": {"NASH patients": {"system": "NASH patients", "test": "Study CLJN452A2202 Parts A and B, 12 weeks", "type": "in vivo, human"}, "[1]": {"system": "patients with biopsy-proven NASH and fibrosis stages 2-3", "test": "FLIGHT-FXR (NCT02855164) Part C interim analysis at week 12", "type": "in vivo, human", "conditions": "for ALT, LS mean absolute change from baseline to Week 12 (SE) / Body weight, LS mean absolute change from baseline to Week 12 (SE) / GGT, LS mean absolute change from baseline to Week 12 (SE): full analysis set", "from_the_text": "Prespecified endpoints assessed at week 12 included overall safety and changes in alanine aminotransferase (ALT), hepatic fat fraction (HFF), gamma glutamyl transferase (GGT), and body weight."}, "[2]": {"system": "HF/NASH mice (hepatic oxidative stress and mitochondrial function)", "test": "Dietary HF/NASH mouse model, tropifexor treatment for the last 12 of 20 weeks", "type": "in vivo, C57BL/6J mice", "from_the_text": "Molecular, structural and functional analysis was applied to assess oxidative stress and mitochondria function in NASH model.\nSimilar to human disease, transition from steatosis to NASH with fibrosis in NASH mice is associated with mitochondrial dysfunction characterized by structural and functional alterations. Decline in hepatic mitochondrial function is manifested in HF/NASH mice by decreased activities of tricarboxylic acid (TCA) cycle and electron transport chain (ETC) as well as diminished ATP production. This is accompanied by oxidative damage and depletion of antioxidant enzymes. […] This was manifested by a marked increase in mitochondrial function with concomitant restoration of oxidative balance associated with increased antioxidant defenses and decreased oxidative stress."}}, "data": [{"molecule": "O=C(O)c1cc(F)c2nc(N3C4CC[C@H]3CC(OCc3c(-c5ccccc5OC(F)(F)F)noc3C3CC3)C4)sc2c1", "note": "(stereo partly drawn) [Tropifexor, 2-[(1R,3r,5S)-3-({5-cyclopropyl-3-[2-(trifluoromethoxy)phenyl]-1,2-oxazol-4-yl}methoxy)-8-azabicyclo[3.2.1]octan-8-yl]-4-fluoro-1,3-benzothiazole-6-carboxylic acid]", "values": [{"measurement": "Biologic activity (GGT)", "setting": "NASH patients; 10 to 90 μg daily for 12 weeks", "value": "clear dose response"}, {"measurement": "Target engagement (FGF19)", "setting": "NASH patients; 10 to 90 μg daily for 12 weeks", "value": "clear dose response"}, {"measurement": "ALT and hepatic fat fraction compared to placebo", "setting": "NASH patients; all doses (10, 30, 60 and 90 μg), 12 weeks", "value": "reduced"}, {"measurement": "Tolerability", "setting": "NASH patients; up to 90 μg daily", "value": "generally well tolerated"}, {"measurement": "Frequency of serious adverse events", "setting": "[1]; 140 μg and 200 μg vs placebo", "value": "low and comparable across groups"}, {"measurement": "Low density lipoprotein-cholesterol (LDL-C)", "setting": "[1]; 140 μg and 200 μg, 12 weeks", "value": "dose-related increase"}, {"measurement": "Share of patients with pruritus whose events were of mild (Grade 1) severity", "setting": "[1]; both Tropifexor groups (140 μg and 200 μg)", "value": "> 60", "unit": "%"}, {"measurement": "Treatment discontinuation rate due to pruritus", "setting": "[1]; tropifexor 140 μg", "value": 2, "unit": "%"}, {"measurement": "ALT, LS mean absolute change from baseline to Week 12 (SE)", "setting": "[1]; tropifexor 140 μg once daily", "value": "−20.1 (4.57) U/L"}, {"measurement": "Body weight, LS mean absolute change from baseline to Week 12 (SE)", "setting": "[1]; tropifexor 140 μg once daily", "value": "−2.46 (0.38) kg"}, {"measurement": "GGT, LS mean absolute change from baseline to Week 12 (SE)", "setting": "[1]; tropifexor 140 μg once daily", "value": "−39.2 (3.70) U/L"}, {"measurement": "Prespecified endpoints at week 12", "setting": "[1]; tropifexor 200 μg", "value": "met"}, {"measurement": "Treatment discontinuation rate due to pruritus", "setting": "[1]; tropifexor 200 μg", "value": 6, "unit": "%"}, {"measurement": "ALT, LS mean absolute change from baseline to Week 12 (SE)", "setting": "[1]; tropifexor 200 μg once daily", "value": "−23.6 (4.48) U/L"}, {"measurement": "Body weight, LS mean absolute change from baseline to Week 12 (SE)", "setting": "[1]; tropifexor 200 μg once daily", "value": "−3.20 (0.37) kg"}, {"measurement": "GGT, LS mean absolute change from baseline to Week 12 (SE)", "setting": "[1]; tropifexor 200 μg once daily", "value": "−40.9 (3.62) U/L"}, {"measurement": "Liver SOD activity", "setting": "[2]; 0.3 mg/kg", "value": "fully restored"}, {"measurement": "GPx activity in serum and liver", "setting": "[2]; 0.9 mg/kg", "value": "restored"}, {"measurement": "Liver SOD activity", "setting": "[2]; 0.9 mg/kg", "value": "increased above the levels observed in ND mice"}, {"measurement": "Cell death (apoptosis) in liver: cleaved-caspase 3 staining and phospho-p38 protein levels", "setting": "[2]; 20 weeks HF/NASH diet", "value": "attenuated cell death in a dose dependent manner"}, {"measurement": "ATP synthesis", "setting": "[2]; HF/NASH livers", "value": "improving"}, {"measurement": "Citrate synthase (CS) activity", "setting": "[2]; HF/NASH livers", "value": "dose-dependently restored"}, {"measurement": "Complex I and Complex II activities", "setting": "[2]; HF/NASH livers", "value": "restoring"}, {"measurement": "Content of all five respiratory chain (OXPHOS) proteins", "setting": "[2]; HF/NASH livers, 0.1 mg/kg", "value": "full restoration"}, {"measurement": "Expression of mitochondrial biogenesis genes (PGC-1a, Nrf1, Tfam)", "setting": "[2]; HF/NASH mice", "value": "did not lead to changes"}, {"measurement": "Levels of oxidative stress in HF/NASH livers (MDA, 4-HNE, mtDNA)", "setting": "[2]; liver", "value": "markedly decreased"}, {"measurement": "Antioxidant gene expression (GPx and GST superfamilies)", "setting": "[2]; liver transcriptome", "value": "induced"}, {"measurement": "Expression of Gpx2, Gst family", "setting": "[2]; liver transcriptome", "value": "markedly increased their expression beyond the ND levels"}, {"measurement": "Expression of Gpx3, Gpx8", "setting": "[2]; liver transcriptome", "value": "restored expression of investigated genes to ND levels"}, {"measurement": "Serum levels of γ-glutamyltranspeptidase (GGT)", "setting": "[2]; serum", "value": "decreased"}]}]}
